Measured values from ChEMBL document CHEMBL1141729, “Two new cytotoxic compounds from Tapirira guianensis” (J Nat Prod, 1998).
≈ marks a conversion by molar mass, not a printed value.

Key:
Assay type in all cases: functional, cell-based
[1] = Cytotoxicity against human BC1 cells
Lu1 = experiment: Cytotoxicity against human Lu1 cells
Col2 = experiment: Cytotoxicity against human Col2 cells
KB = experiment: Cytotoxicity against human KB cells
[2] = Cytotoxicity against vinblastine-resistant human KBV1 cells in presence of vinblastine; settings: KB-V1
[3] = Cytotoxicity against vinblastine-resistant human KBV1 cells; settings: KB-V1
LNCaP = experiment: Cytotoxicity against human LNCAP cells

CCCCCC/C=C\CCCCCCCCCc1cc(O)ccc1O
IC50 [1]: 1.3 µg/mL (≈ 3.75 µM) | IC50 (Lu1): 0.3 µg/mL (≈ 0.866 µM) | IC50 (Col2): 0.8 µg/mL (≈ 2.31 µM) | IC50 (KB): 0.5 µg/mL (≈ 1.44 µM) | IC50 [2]: 0.5 µg/mL | IC50 [3]: 0.6 µg/mL (≈ 1.73 µM) | IC50 (LNCaP): 0.2 µg/mL (≈ 0.577 µM)

CCCCCC/C=C\CCCCCCCCC[C@]1(O)C=CC(=O)[C@@H](O)C1
IC50 [1]: 4.3 µg/mL (≈ 11.8 µM) | IC50 (Lu1): 4.4 µg/mL (≈ 12.1 µM) | IC50 (Col2): 1.8 µg/mL (≈ 4.94 µM) | IC50 (KB): 1.5 µg/mL (≈ 4.11 µM) | IC50 [2]: 4.1 µg/mL | IC50 [3]: 4.2 µg/mL (≈ 11.5 µM) | IC50 (LNCaP): 0.3 µg/mL (≈ 0.823 µM)
